Assays:
Assay in all cases: relative viability (nuclei count vs DMSO), 5 days (fraction); higher = more cells survive
NCI-H2228 = test system: NCI-H2228
Summary of the method: (§1)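 Dosing by pin tool came one day after lung cancer cell lines were seeded in 1536-well plates, using either one drug or a fixed anchor-drug dose plus five library-drug doses (not always all listed) in √10 steps. After 5 days, nuclei were counted on 4× images. Relative viability is treated-well nuclei count divided by vehicle-well nuclei count, and values are medians of duplicate plates.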

H3255 = test system: H3255
Summary of the method: as §1

NCI-H1650 = test system: NCI-H1650
Summary of the method: as §1

PC-14 = test system: PC-14
Summary of the method: as §1

NCI-H520 = test system: NCI-H520
Summary of the method: as §1

COR-L23 = test system: COR-L23
Summary of the method: as §1

NCI-H2342 = test system: NCI-H2342
Summary of the method: as §1

NCI-H1355 = test system: NCI-H1355
Summary of the method: as §1

NCI-H661 = test system: NCI-H661
Summary of the method: as §1

HCC-15 = test system: HCC-15
Summary of the method: as §1

NCI-H1734 = test system: NCI-H1734
Summary of the method: as §1

NCI-H2405 = test system: NCI-H2405
Summary of the method: as §1

CAL-12T = test system: CAL-12T
Summary of the method: as §1

EKVX = test system: EKVX
Summary of the method: as §1

SW 1573 = test system: SW 1573
Summary of the method: as §1

NCI-H1437 = test system: NCI-H1437
Summary of the method: as §1

RERF-LC-KJ = test system: RERF-LC-KJ
Summary of the method: as §1

HCC-827 = test system: HCC-827
Summary of the method: as §1

LK-2 = test system: LK-2
Summary of the method: as §1

PC-3 [JPC-3] = test system: PC-3 [JPC-3]
Summary of the method: as §1

NCI-H322M = test system: NCI-H322M
Summary of the method: as §1

ABC-1 = test system: ABC-1
Summary of the method: as §1

Question: Which relative viability (NCI-H2228; first compound 0.01 µM) does the source give for NC(=O)Nc1cc(-c2cccc(F)c2)sc1C(=O)N[C@H]1CCCNC1 [AZD7762] + CC(=O)c1c(C)c2cnc(Nc3ccc(N4CCNCC4)cn3)nc2n(C2CCCC2)c1=O [Palbociclib] (partner 0.5 µM) here?
Answer: 0.787

Question: And the relative viability (NCI-H2228; first compound 0.03162 µM)?
Answer: 0.937

Question: And the relative viability (NCI-H2228; first compound 0.1 µM)?
Answer: 0.896

Question: What about the relative viability (NCI-H2228; first compound 0.3162 µM) of the same compound?
Answer: 0.283

Question: And the relative viability (NCI-H2228; first compound 1 µM)?
Answer: 0.156

Question: And the relative viability (H3255; first compound 0.01 µM)?
Answer: 0.329

Question: What about the relative viability (H3255; first compound 0.03162 µM) of the same compound?
Answer: 0.312

Question: And the relative viability (H3255; first compound 0.1 µM)?
Answer: 0.362

Question: What about the relative viability (H3255; first compound 0.3162 µM) of the same compound?
Answer: 0.366

Question: And the relative viability (H3255; first compound 1 µM)?
Answer: 0.35

Question: And the relative viability (NCI-H1650; first compound 0.01 µM)?
Answer: 0.367

Question: And the relative viability (NCI-H1650; first compound 0.03162 µM)?
Answer: 0.397

Question: And the relative viability (NCI-H1650; first compound 0.1 µM)?
Answer: 0.344

Question: And the relative viability (NCI-H1650; first compound 0.3162 µM)?
Answer: 0.314

Question: And the relative viability (NCI-H1650; first compound 1 µM)?
Answer: 0.176

Question: What about the relative viability (PC-14; first compound 0.01 µM) of the same compound?
Answer: 0.601

Question: And the relative viability (PC-14; first compound 0.03162 µM)?
Answer: 0.469

Question: And the relative viability (PC-14; first compound 0.1 µM)?
Answer: 0.326

Question: And the relative viability (PC-14; first compound 0.3162 µM)?
Answer: 0.203

Question: And the relative viability (PC-14; first compound 1 µM)?
Answer: 0.0753

Question: What about the relative viability (NCI-H520; first compound 0.01 µM) of the same compound?
Answer: 0.244

Question: And the relative viability (NCI-H520; first compound 0.03162 µM)?
Answer: 0.255

Question: What about the relative viability (NCI-H520; first compound 0.1 µM) of the same compound?
Answer: 0.189

Question: What about the relative viability (NCI-H520; first compound 0.3162 µM) of the same compound?
Answer: 0.232

Question: And the relative viability (NCI-H520; first compound 1 µM)?
Answer: 0.189

Question: What about the relative viability (COR-L23; first compound 0.01 µM) of the same compound?
Answer: 0.307

Question: What about the relative viability (COR-L23; first compound 0.03162 µM) of the same compound?
Answer: 0.332

Question: What about the relative viability (COR-L23; first compound 0.1 µM) of the same compound?
Answer: 0.412

Question: And the relative viability (COR-L23; first compound 0.3162 µM)?
Answer: 0.261

Question: What about the relative viability (COR-L23; first compound 1 µM) of the same compound?
Answer: 0.117

Question: And the relative viability (NCI-H2342; first compound 0.01 µM)?
Answer: 0.492

Question: What about the relative viability (NCI-H2342; first compound 0.03162 µM) of the same compound?
Answer: 0.513

Question: What about the relative viability (NCI-H2342; first compound 0.1 µM) of the same compound?
Answer: 0.447

Question: What about the relative viability (NCI-H2342; first compound 0.3162 µM) of the same compound?
Answer: 0.483

Question: What about the relative viability (NCI-H2342; first compound 1 µM) of the same compound?
Answer: 0.505

Question: What about the relative viability (NCI-H1355; first compound 0.01 µM) of the same compound?
Answer: 0.415

Question: And the relative viability (NCI-H1355; first compound 0.03162 µM)?
Answer: 0.389

Question: What about the relative viability (NCI-H1355; first compound 0.1 µM) of the same compound?
Answer: 0.389

Question: What about the relative viability (NCI-H1355; first compound 0.3162 µM) of the same compound?
Answer: 0.418

Question: And the relative viability (NCI-H1355; first compound 1 µM)?
Answer: 0.39

Question: And the relative viability (NCI-H661; first compound 0.01 µM)?
Answer: 0.447

Question: What about the relative viability (NCI-H661; first compound 0.03162 µM) of the same compound?
Answer: 0.456

Question: What about the relative viability (NCI-H661; first compound 0.1 µM) of the same compound?
Answer: 0.497

Question: What about the relative viability (NCI-H661; first compound 0.3162 µM) of the same compound?
Answer: 0.461

Question: What about the relative viability (NCI-H661; first compound 1 µM) of the same compound?
Answer: 0.344

Question: And the relative viability (HCC-15; first compound 0.01 µM)?
Answer: 0.74

Question: And the relative viability (HCC-15; first compound 0.03162 µM)?
Answer: 0.738

Question: What about the relative viability (HCC-15; first compound 0.1 µM) of the same compound?
Answer: 0.802

Question: What about the relative viability (HCC-15; first compound 0.3162 µM) of the same compound?
Answer: 0.676

Question: And the relative viability (HCC-15; first compound 1 µM)?
Answer: 0.718

Question: And the relative viability (NCI-H1734; first compound 0.01 µM)?
Answer: 0.38

Question: What about the relative viability (NCI-H1734; first compound 0.03162 µM) of the same compound?
Answer: 0.364

Question: What about the relative viability (NCI-H1734; first compound 0.1 µM) of the same compound?
Answer: 0.395

Question: And the relative viability (NCI-H1734; first compound 0.3162 µM)?
Answer: 0.356

Question: What about the relative viability (NCI-H1734; first compound 1 µM) of the same compound?
Answer: 0.317

Question: What about the relative viability (NCI-H2405; first compound 0.01 µM) of the same compound?
Answer: 0.516

Question: And the relative viability (NCI-H2405; first compound 0.03162 µM)?
Answer: 0.538

Question: And the relative viability (NCI-H2405; first compound 0.1 µM)?
Answer: 0.465

Question: And the relative viability (NCI-H2405; first compound 0.3162 µM)?
Answer: 0.507

Question: And the relative viability (NCI-H2405; first compound 1 µM)?
Answer: 0.302

Question: And the relative viability (CAL-12T; first compound 0.01 µM)?
Answer: 0.519

Question: What about the relative viability (CAL-12T; first compound 0.03162 µM) of the same compound?
Answer: 0.502

Question: What about the relative viability (CAL-12T; first compound 0.1 µM) of the same compound?
Answer: 0.412

Question: And the relative viability (CAL-12T; first compound 0.3162 µM)?
Answer: 0.194

Question: What about the relative viability (CAL-12T; first compound 1 µM) of the same compound?
Answer: 0.129

Question: And the relative viability (EKVX; first compound 0.01 µM)?
Answer: 0.414

Question: And the relative viability (EKVX; first compound 0.03162 µM)?
Answer: 0.415

Question: And the relative viability (EKVX; first compound 0.1 µM)?
Answer: 0.372

Question: What about the relative viability (EKVX; first compound 0.3162 µM) of the same compound?
Answer: 0.445

Question: What about the relative viability (EKVX; first compound 1 µM) of the same compound?
Answer: 0.299

Question: What about the relative viability (SW 1573; first compound 0.01 µM) of the same compound?
Answer: 0.424

Question: And the relative viability (SW 1573; first compound 0.03162 µM)?
Answer: 0.453

Question: What about the relative viability (SW 1573; first compound 0.1 µM) of the same compound?
Answer: 0.466

Question: And the relative viability (SW 1573; first compound 0.3162 µM)?
Answer: 0.377

Question: And the relative viability (SW 1573; first compound 1 µM)?
Answer: 0.314

Question: What about the relative viability (NCI-H1437; first compound 0.01 µM) of the same compound?
Answer: 0.357

Question: And the relative viability (NCI-H1437; first compound 0.03162 µM)?
Answer: 0.293

Question: What about the relative viability (NCI-H1437; first compound 0.1 µM) of the same compound?
Answer: 0.379

Question: And the relative viability (NCI-H1437; first compound 0.3162 µM)?
Answer: 0.41

Question: What about the relative viability (NCI-H1437; first compound 1 µM) of the same compound?
Answer: 0.35

Question: What about the relative viability (RERF-LC-KJ; first compound 0.01 µM) of the same compound?
Answer: 1.09

Question: What about the relative viability (RERF-LC-KJ; first compound 0.03162 µM) of the same compound?
Answer: 1.07

Question: And the relative viability (RERF-LC-KJ; first compound 0.1 µM)?
Answer: 1.06

Question: And the relative viability (RERF-LC-KJ; first compound 0.3162 µM)?
Answer: 1.01

Question: And the relative viability (RERF-LC-KJ; first compound 1 µM)?
Answer: 0.965

Question: What about the relative viability (HCC-827; first compound 0.01 µM) of the same compound?
Answer: 0.544

Question: And the relative viability (HCC-827; first compound 0.03162 µM)?
Answer: 0.469

Question: What about the relative viability (HCC-827; first compound 0.1 µM) of the same compound?
Answer: 0.486

Question: What about the relative viability (HCC-827; first compound 0.3162 µM) of the same compound?
Answer: 0.498

Question: What about the relative viability (HCC-827; first compound 1 µM) of the same compound?
Answer: 0.303

Question: And the relative viability (LK-2; first compound 0.01 µM)?
Answer: 0.6

Question: What about the relative viability (LK-2; first compound 0.03162 µM) of the same compound?
Answer: 0.779

Question: What about the relative viability (LK-2; first compound 0.1 µM) of the same compound?
Answer: 0.742

Question: And the relative viability (LK-2; first compound 0.3162 µM)?
Answer: 0.612

Question: And the relative viability (LK-2; first compound 1 µM)?
Answer: 0.572

Question: And the relative viability (PC-3 [JPC-3]; first compound 0.01 µM)?
Answer: 0.558

Question: And the relative viability (PC-3 [JPC-3]; first compound 0.03162 µM)?
Answer: 0.541

Question: And the relative viability (PC-3 [JPC-3]; first compound 0.1 µM)?
Answer: 0.537

Question: What about the relative viability (PC-3 [JPC-3]; first compound 0.3162 µM) of the same compound?
Answer: 0.538

Question: And the relative viability (PC-3 [JPC-3]; first compound 1 µM)?
Answer: 0.504

Question: And the relative viability (NCI-H322M; first compound 0.01 µM)?
Answer: 0.477

Question: What about the relative viability (NCI-H322M; first compound 0.03162 µM) of the same compound?
Answer: 0.517

Question: What about the relative viability (NCI-H322M; first compound 0.1 µM) of the same compound?
Answer: 0.465

Question: And the relative viability (NCI-H322M; first compound 0.3162 µM)?
Answer: 0.523

Question: What about the relative viability (NCI-H322M; first compound 1 µM) of the same compound?
Answer: 0.441

Question: What about the relative viability (ABC-1; first compound 0.01 µM) of the same compound?
Answer: 0.884

Question: And the relative viability (ABC-1; first compound 0.03162 µM)?
Answer: 0.968

Question: And the relative viability (ABC-1; first compound 0.1 µM)?
Answer: 0.526

Question: And the relative viability (ABC-1; first compound 0.3162 µM)?
Answer: 0.948

Question: What about the relative viability (ABC-1; first compound 1 µM) of the same compound?
Answer: 0.74
